Reference: ChEMBL document CHEMBL1201862, “PubChem BioAssay data set” (2004)
Activity calls are given as the source filed them.

Tests used:
[1] = biological target: ATP-dependent molecular chaperone HSP82 (Candida albicans (strain WO-1) (Yeast), UniProt C4YTQ8); experiment: loss of DOC-induced GRE-beta-galactosidase reporter signal, dose response, Hsp90 inhibitor project, S. cerevisiae, luminescence (AID 2400); format: functional, cell-based;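 also: beta-galactosidase luminescence from glucocorticoid response element reporter as proxy for Hsp90 function; inhibitor potency where signal loss means Hsp90 inhibition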
ATP-dependent molecular chaperone HSP82, sequence (C4YTQ8 whole entry): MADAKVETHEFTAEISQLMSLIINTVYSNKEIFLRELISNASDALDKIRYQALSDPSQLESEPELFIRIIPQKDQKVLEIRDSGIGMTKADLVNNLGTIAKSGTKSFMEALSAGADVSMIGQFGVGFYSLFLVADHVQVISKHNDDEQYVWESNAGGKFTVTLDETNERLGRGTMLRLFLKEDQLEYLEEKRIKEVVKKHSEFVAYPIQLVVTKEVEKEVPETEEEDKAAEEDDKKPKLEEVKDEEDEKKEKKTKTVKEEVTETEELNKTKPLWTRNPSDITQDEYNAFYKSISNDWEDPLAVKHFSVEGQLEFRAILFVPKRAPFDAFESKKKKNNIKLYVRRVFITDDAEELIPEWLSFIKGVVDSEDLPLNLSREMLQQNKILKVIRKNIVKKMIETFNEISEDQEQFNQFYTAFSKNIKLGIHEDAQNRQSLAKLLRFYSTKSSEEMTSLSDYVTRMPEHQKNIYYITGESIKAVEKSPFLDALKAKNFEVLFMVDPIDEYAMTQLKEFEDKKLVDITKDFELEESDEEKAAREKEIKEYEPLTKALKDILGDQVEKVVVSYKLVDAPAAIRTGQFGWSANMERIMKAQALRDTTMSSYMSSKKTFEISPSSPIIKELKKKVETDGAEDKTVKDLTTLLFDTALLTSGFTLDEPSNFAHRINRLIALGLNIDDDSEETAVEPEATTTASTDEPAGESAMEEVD

Protein RecA = biological target: T1, Protein RecA (Mycobacterium tuberculosis, UniProt P9WHJ3); experiment: Fluorescence Cell-Free Homogeneous Dose Retest to Identify Inhibitors of RecA-Intein Splicing Activity. [Related pubchem assays (depositor defined):AID2097, AID2223, AID489010, AID492950]; format: functional
T1 sequence (P9WHJ3 whole entry): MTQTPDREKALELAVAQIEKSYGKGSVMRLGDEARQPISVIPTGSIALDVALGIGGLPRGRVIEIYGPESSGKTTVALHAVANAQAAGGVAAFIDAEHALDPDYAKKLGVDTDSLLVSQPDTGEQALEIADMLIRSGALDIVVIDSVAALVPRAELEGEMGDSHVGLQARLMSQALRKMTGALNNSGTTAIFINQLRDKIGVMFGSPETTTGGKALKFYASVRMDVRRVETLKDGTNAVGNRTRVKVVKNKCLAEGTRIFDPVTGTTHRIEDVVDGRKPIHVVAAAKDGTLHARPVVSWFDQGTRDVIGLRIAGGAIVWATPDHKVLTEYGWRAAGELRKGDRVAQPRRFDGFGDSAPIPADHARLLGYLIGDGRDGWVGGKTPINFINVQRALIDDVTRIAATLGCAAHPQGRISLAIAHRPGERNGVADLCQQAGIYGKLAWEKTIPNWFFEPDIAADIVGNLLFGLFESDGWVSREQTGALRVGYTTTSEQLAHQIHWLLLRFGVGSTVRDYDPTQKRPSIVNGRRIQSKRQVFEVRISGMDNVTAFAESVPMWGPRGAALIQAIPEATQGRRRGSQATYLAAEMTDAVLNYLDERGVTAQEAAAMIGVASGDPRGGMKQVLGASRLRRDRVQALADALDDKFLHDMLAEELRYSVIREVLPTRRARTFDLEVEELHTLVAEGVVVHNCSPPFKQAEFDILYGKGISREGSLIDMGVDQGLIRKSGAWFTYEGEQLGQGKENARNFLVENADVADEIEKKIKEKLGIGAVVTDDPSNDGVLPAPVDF

[2] = biological target: Platelet-derived growth factor receptor beta (Homo sapiens, UniProt P09619); format: functional;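 also: value comes from a kinome panel, with PDGFRB tested as one panel member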
[3] = biological target: Serine/threonine-protein kinase SIK2 (Homo sapiens, UniProt Q9H0K1); experiment: Navigating the Kinome. Panel member name: SIK2; format: functional
Serine/threonine-protein kinase SIK2, sequence (Q9H0K1 whole entry): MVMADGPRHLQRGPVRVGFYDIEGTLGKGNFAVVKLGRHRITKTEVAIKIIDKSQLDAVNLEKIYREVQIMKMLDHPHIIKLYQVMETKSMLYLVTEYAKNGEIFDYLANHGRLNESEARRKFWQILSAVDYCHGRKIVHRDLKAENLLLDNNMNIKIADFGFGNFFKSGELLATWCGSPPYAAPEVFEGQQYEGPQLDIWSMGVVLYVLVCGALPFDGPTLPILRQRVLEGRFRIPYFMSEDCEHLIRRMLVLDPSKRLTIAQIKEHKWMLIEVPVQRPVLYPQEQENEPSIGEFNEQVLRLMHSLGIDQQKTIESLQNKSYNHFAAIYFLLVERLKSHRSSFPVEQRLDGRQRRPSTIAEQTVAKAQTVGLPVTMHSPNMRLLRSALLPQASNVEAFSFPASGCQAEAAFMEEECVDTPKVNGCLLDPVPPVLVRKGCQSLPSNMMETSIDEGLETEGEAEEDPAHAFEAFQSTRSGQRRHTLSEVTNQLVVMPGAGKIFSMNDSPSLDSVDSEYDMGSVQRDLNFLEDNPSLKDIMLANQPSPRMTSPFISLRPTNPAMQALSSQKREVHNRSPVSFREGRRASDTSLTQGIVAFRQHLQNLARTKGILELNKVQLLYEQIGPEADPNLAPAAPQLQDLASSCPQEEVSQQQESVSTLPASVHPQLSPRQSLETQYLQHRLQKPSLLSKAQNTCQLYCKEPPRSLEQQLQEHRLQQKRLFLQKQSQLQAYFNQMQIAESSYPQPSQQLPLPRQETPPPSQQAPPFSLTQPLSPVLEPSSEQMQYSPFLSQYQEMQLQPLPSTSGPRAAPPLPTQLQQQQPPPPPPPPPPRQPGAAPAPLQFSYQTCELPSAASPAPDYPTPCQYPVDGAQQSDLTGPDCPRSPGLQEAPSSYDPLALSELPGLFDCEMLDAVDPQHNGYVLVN

[4] = biological target: Mitogen-activated protein kinase kinase kinase 20 (Homo sapiens, UniProt Q9NYL2); format: functional
[5] = biological target: Mitogen-activated protein kinase 12 (Homo sapiens, UniProt P53778); format: functional;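 also: measured as one member of a kinome-wide kinase profiling panel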
Mitogen-activated protein kinase 12, sequence (P53778 whole entry): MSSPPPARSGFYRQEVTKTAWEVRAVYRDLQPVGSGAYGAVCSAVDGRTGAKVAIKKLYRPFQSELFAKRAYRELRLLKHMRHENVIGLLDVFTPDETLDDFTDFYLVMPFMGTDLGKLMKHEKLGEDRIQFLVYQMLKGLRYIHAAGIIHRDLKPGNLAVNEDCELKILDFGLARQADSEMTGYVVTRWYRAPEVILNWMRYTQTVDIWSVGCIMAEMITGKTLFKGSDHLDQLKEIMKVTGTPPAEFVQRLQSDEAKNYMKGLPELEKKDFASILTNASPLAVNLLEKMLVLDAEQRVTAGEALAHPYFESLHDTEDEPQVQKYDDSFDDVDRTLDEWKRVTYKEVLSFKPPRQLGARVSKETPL

[6] = biological target: Lymphokine-activated killer T-cell-originated protein kinase (Homo sapiens, UniProt Q96KB5); format: functional;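 also: value comes from a kinase panel screen in which TOPK was one of the panel members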
Lymphokine-activated killer T-cell-originated protein kinase, sequence (Q96KB5 whole entry): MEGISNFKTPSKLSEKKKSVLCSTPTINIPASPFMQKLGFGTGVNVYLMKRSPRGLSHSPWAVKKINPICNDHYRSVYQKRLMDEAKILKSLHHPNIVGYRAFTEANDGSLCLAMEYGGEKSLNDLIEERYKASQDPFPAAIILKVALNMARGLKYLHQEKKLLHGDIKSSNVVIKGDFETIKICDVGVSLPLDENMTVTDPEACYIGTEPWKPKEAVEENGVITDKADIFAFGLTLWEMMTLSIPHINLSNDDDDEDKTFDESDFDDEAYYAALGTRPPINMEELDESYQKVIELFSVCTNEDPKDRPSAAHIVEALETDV

[7] = biological target: Tyrosine-protein kinase BTK (Homo sapiens, UniProt Q06187); format: functional
Tyrosine-protein kinase BTK, sequence (Q06187 whole entry): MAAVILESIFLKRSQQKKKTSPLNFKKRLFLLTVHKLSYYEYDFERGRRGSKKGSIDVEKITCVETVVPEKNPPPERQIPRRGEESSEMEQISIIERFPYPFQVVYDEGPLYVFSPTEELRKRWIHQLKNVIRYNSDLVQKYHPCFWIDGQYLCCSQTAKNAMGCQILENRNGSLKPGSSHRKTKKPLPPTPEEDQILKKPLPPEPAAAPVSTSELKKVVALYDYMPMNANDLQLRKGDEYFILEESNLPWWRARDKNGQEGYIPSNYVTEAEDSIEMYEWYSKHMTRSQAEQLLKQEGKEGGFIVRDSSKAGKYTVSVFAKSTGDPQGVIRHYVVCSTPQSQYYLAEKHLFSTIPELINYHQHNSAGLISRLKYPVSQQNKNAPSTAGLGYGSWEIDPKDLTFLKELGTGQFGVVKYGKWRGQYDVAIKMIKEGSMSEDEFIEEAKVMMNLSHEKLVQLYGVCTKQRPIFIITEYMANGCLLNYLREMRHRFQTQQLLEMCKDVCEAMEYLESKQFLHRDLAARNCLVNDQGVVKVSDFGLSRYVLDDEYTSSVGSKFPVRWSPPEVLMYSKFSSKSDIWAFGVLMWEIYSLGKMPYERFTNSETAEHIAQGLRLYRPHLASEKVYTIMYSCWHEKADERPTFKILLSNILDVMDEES

[8] = biological target: Cell division cycle 7-related protein kinase (Homo sapiens, UniProt O00311); format: functional;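 also: value obtained from a kinome-wide kinase panel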
[9] = biological target: Calcium/calmodulin-dependent protein kinase type II subunit delta (Homo sapiens, UniProt Q13557); format: functional
[10] = biological target: Mitogen-activated protein kinase 1 (Homo sapiens, UniProt P28482); format: functional
[11] = biological target: Protein-tyrosine kinase 2-beta (Homo sapiens, UniProt Q14289); format: functional
[12] = biological target: Glycogen synthase kinase-3 alpha (Homo sapiens, UniProt P49840); format: functional;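 also: GSK3A result taken from a broad kinome-wide kinase panel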
Glycogen synthase kinase-3 alpha, sequence (P49840 whole entry): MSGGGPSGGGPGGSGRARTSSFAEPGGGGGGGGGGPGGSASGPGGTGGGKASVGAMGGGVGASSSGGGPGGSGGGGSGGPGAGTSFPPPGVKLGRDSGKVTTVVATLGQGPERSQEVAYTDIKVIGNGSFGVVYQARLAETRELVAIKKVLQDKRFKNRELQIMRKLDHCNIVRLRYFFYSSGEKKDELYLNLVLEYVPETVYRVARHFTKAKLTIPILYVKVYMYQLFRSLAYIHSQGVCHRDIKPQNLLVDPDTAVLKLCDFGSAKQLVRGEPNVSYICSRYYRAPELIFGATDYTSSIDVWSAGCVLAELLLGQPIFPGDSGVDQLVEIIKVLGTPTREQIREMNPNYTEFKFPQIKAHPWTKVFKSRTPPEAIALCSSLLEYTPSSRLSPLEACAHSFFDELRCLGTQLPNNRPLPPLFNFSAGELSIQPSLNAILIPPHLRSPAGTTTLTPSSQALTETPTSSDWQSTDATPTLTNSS

[13] = biological target: Serine/threonine-protein kinase pim-3 (Homo sapiens, UniProt Q86V86); format: functional;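 also: value obtained as one member of a broad kinase panel profiling effort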
[14] = biological target: Calcium/calmodulin-dependent protein kinase type 1 (Homo sapiens, UniProt Q14012); format: functional
Calcium/calmodulin-dependent protein kinase type 1, sequence (Q14012 whole entry): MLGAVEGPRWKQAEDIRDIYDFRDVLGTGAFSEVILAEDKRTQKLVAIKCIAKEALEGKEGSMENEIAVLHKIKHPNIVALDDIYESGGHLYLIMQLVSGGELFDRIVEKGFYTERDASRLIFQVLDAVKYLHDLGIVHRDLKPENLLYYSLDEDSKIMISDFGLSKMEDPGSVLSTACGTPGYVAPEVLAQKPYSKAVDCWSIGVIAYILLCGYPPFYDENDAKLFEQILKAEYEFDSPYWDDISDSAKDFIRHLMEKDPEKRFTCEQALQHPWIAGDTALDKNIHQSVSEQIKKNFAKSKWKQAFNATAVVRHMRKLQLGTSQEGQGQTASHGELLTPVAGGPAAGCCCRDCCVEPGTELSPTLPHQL

[15] = biological target: Fibroblast growth factor receptor 1 (Homo sapiens, UniProt P11362); format: functional
[16] = biological target: Serine/threonine-protein kinase pim-2 (Homo sapiens, UniProt Q9P1W9); format: functional;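 also: value comes from a broad kinase panel profiling study in which PIM2 was one of the panel members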
Serine/threonine-protein kinase pim-2, sequence (Q9P1W9 whole entry): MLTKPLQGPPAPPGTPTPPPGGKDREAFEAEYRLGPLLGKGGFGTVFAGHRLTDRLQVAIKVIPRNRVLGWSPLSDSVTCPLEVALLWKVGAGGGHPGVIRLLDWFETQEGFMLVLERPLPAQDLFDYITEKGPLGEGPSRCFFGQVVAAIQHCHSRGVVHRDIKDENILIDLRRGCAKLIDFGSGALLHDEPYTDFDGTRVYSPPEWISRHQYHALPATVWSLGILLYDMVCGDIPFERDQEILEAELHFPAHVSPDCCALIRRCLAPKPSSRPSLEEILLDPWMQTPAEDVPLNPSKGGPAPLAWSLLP

Activin receptor type-1 = Activin receptor type-1 (Homo sapiens, UniProt Q04771); experiment: Navigating the Kinome. Panel member name: ACVR1; format: functional
Activin receptor type-1, sequence (Q04771 whole entry): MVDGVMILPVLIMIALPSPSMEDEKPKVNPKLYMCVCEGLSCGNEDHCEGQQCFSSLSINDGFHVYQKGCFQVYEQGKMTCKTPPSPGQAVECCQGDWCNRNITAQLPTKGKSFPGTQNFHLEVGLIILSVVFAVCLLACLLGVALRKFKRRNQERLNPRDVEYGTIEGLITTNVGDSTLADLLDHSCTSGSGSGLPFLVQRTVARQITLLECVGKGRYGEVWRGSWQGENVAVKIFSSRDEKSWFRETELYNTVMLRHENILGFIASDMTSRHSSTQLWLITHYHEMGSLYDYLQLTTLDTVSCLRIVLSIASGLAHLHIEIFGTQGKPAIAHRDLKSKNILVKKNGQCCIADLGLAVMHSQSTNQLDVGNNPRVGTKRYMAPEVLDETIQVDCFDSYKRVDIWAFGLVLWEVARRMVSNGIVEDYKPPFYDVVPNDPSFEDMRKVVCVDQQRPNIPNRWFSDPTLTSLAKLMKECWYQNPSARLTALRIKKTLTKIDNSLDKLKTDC

Structure (SMILES)	EC50 [1]	EC50 (Protein RecA)	Ki [2]	Ki [3]	Ki [4]	Ki [5]	Ki [6]	Ki [7]	Ki [8]	Ki [9]	Ki [10]	Ki [11]	Ki [12]	Ki [13]	Ki [14]	Ki [15]	Ki [16]	Ki (Activin receptor type-1)
CCCn1nc([N+](=O)[O-])c(C(C#N)c2nc3ccccc3s2)c(Cl)c1=O (stereo not drawn)	10700 nM (active)	2170 nM (active)	–	–	–	–	–	–	–	–	–	–	–	–	–	–	–	–
NCCCn1cc(-c2cc(-c3cc4ccccc4s3)c3[nH]ncc3c2)c2nc(N)ncc21	–	–	> 2000 nM (inactive)	251 nM (active)	2510 nM (active)	1260 nM (active)	2510 nM (active)	> 3980 nM (inactive)	12.6 nM (active)	158 nM (active)	5010 nM (active)	251 nM (active)	126 nM (active)	31.6 nM (active)	3160 nM (active)	> 3980 nM (inactive)	100 nM (active)	> 3160 nM (inactive)
